Source: patent US6943149B2, “Benzimidazolone peptidomimetics as thrombin receptor antagonists” (Ortho McNeil Pharmaceutical, Inc., priority 1999, dated 2005)

Experiments:
[1] = target: T1, Thrombin receptor (PAR-1) (Homo sapiens, UniProt P25116); test: Thrombin receptor (PAR-1) binding assay; details: CHRF membranes; tritiated 721-40 radioligand; read-out: IC50 (μM) Thr recptr Bdg
T1 construct: CHRF membranes (Jones, Biochim. Biophys. Acta 1992, 1136, 272) are thawed from −70° C; endogenous in cells; host or cells: CHRF cell membranes
T1 sequence (P25116 22-425): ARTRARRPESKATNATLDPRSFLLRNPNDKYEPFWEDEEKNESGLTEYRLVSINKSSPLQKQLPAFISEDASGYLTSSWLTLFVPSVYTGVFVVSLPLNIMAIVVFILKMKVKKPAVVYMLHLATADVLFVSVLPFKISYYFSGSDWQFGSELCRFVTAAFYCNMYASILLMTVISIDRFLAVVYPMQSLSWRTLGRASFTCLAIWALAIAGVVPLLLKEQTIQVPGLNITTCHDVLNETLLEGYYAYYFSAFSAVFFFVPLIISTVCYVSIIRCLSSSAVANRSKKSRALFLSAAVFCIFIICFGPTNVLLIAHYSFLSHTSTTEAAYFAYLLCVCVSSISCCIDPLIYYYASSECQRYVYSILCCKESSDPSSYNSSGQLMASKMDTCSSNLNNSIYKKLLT
Protocol: In Vitro Thrombin Receptor Binding Assay
CHRF membranes (Jones, Biochim. Biophys. Acta 1992, 1136, 272) are thawed from −70° C., centrifuged at maximum speed for 5 min, washed twice with binding buffer (50 mM HEPES containing 5 mM MgCl2 and 0.1% BSA), and re-suspended in binding buffer ([…]). 100 μL of membranes are added to the 24-Wallac plates and delivered to the Tomtech apparatus. In a typical experiment, 6 μL of samples (from a 125 μg/mL intermediary plate, 20% DMSO) and 44 μL buffer are delivered to the plates (final conc. of compounds is 3.7 μg/mL, 0.6% DMSO). Similarly, 6 μL 20% DMSO and 44 μL buffer are delivered to both column 1 (NSB) and column 12 (TB). 10 μL Ser-pFPhe-Har-Leu-Har-Lys-Tyr-NH2, SEQ ID NO 1, (721-40; 500 μM in deionized water) is added to column 1. 50 μL tritiated 721-40 (specific activity 46 Ci/mmol) is added to all the wells. The plates are mixed well for 20 seconds, incubated for 30 min, and then harvested with 10 mM HEPES/138 mM NaCl using the Skatron harvester. The filters (GF/C Brandel FPXLR 296) are presoaked 3 h in 0.5% polyethylenimine in HEPES/0.1M N-acetylglucosamine) are set in saran wrap and dried for 3 min in the microwave, and placed in sample bags (Wallac 1450-432). 4.5 mL scintillation fluid (Wallac, Betaplate Scint 1205-440) is added. The bags are sealed, placed in filter cassettes (Wallac 1450-104), and analyzed on the microbeta counter.

[2] = test system: gel-filtered platelets (thrombin-stimulated aggregation); test: Thrombin-induced gel-filtered platelet aggregation assay; assay type: cell-based; details: human platelets, read-out: IC50 (μM) Thr GFP Aggr
Protocol: In Vitro Inhibition of Thrombin-Induced Gel-Filtered Platelet Aggregation Assay
The percentage of platelet aggregation is calculated as an increase in light transmission of compound-treated platelet concentrate vs. control-treated platelet concentrate. Human blood is obtained from drug free, normal donors in tubes containing 0.13M sodium citrate. Platelet rich plasma (PRP) is collected by centrifugation of whole blood at 200×g for 10 min at 25° C. The PRP (5 mL) is gel filtered through Sepharose 2B (bed volume 50 mL), and the platelet count is adjusted to 2×10^7 platelets per sample. The following constituents are added to a siliconized cuvette: concentrated platelet filtrate and Tyrode's buffer (0.14M NaCl, 0.0027M KCl, 0.012M NaHCO3, 0.76 mM Na2HPO4, 0.0055M glucose, 2 mg/mL BSA and 5.0 mM HEPES @ pH 7.4) in an amount equal to 350 μL, 50 μL of 20 mM calcium and 50 μL of the test compound. Aggregation is monitored in a BIODATA aggregometer for the 3 min following the addition of agonist (thrombin 50 μL of 1 unit/mL).

Row | SMILES | IC50 [1] [µM] | IC50 [2] [µM]
1 | Cc1ccccc1Cn1c(=O)n(CCN(C)C)c2cc(NC(=O)N[C@@H](Cc3ccc(F)c(F)c3)C(=O)N[C@@H](CCN)C(=O)NCc3ccccc3)ccc21 [Compound 3] | 1.9 | 7.7
2 | NCCNC(=O)[C@H](Cc1ccncc1)NC(=O)[C@H](Cc1ccc(F)c(F)c1)NC(=O)Nc1ccc2c(c1)n(Cc1ccc(F)cc1)c(=O)n2CCN1CCCC1 [Compound 8] | 0.5 | 5.8
3 | Cc1ccccc1Cn1c(=O)n(CCN2CCCC2)c2cc(NC(=O)N[C@@H](Cc3ccc(F)c(F)c3)C(=O)N[C@@H](CCN)C(=O)NCc3ccccc3)ccc21 [Compound 2] | 3 | 7
4 | NCC[C@H](NC(=O)[C@H](Cc1ccc(F)c(F)c1)NC(=O)Nc1ccc2c(c1)n(CCN1CCCC1)c(=O)n2Cc1c(Cl)cccc1Cl)C(=O)NCc1ccccc1 [Compound 7] | 1.7 | 5.5
5 | Cc1ccccc1Cn1c(=O)n(CCN2CCCC2)c2ccc(NC(=O)N[C@@H](Cc3ccc(F)c(F)c3)C(=O)N[C@@H](CCN)C(=O)NCc3ccccc3)cc21 [Compound 5] | 0.4 | 0.28
6 | NCC[C@H](NC(=O)[C@H](Cc1ccc(F)c(F)c1)NC(=O)Nc1ccc2c(c1)n(Cc1c(Cl)cccc1Cl)c(=O)n2CCN1CCCC1)C(=O)NCc1ccccc1 [Compound 1] | 1.6 | 0.39
7 | Cc1ccccc1Cn1c(=O)n(CCN(C)C)c2ccc(NC(=O)N[C@@H](Cc3ccc(F)c(F)c3)C(=O)N[C@@H](CCN)C(=O)NCc3ccccc3)cc21 [Compound 4] | 0.7 | 0.23
8 | NCC[C@H](NC(=O)[C@H](Cc1ccc(F)c(F)c1)NC(=O)Nc1ccc2c(c1)n(Cc1ccc(F)cc1)c(=O)n2CCN1CCCC1)C(=O)NCc1ccccc1 [Compound 6] | 0.6 | 6
